The values below are quoted from earlier work in patent US12462914B2, “Systems and methods for dispensing a statin medication over the counter” (ASTRAZENECA UK LIMITED, priority 2016, dated 2025).

For the data set the following is noted: co-administration of warfarin with a single oral dose of atorvastatin.

With `CC(C)c1c(C(=O)Nc2ccccc2)c(-c2ccccc2)c(-c2ccc(F)cc2)n1CC[C@@H](O)C[C@@H](O)CC(=O)O` [atorvastatin], the “effect on the pharmacokinetics of atorvastatin” value is “no significant effect”.
